In patent publication US20230141603A1, “BENZODIAZEPINE DERIVATIVES AS GABA A GAMMA1 PAM” (Hoffmann-La Roche Inc., priority 2021, published 2023):

Assays:
[1] = molecular target: T1, h-GABAA α2β2γ1 (Homo sapiens, UniProt P47869+Q8N1C3); test: Two-electrode voltage clamp electrophysiology in Xenopus oocytes, modulation of GABA EC20 current; format: cell-based; design: host or cells: Xenopus laevis oocytes, RNA micro-injection; conditions: Table 2; for Efficacy (GABA)%: % modulation of GABA EC20 = 100*(Fold increase−1), compound at approx. 30-fold Ki; for Fold increase h-GABA-A α2β2γ1 oocyte @ 30-fold Ki: compound at approx. 30-fold its Ki α2β2γ1, GABA EC20, Xenopus oocytes
T1 sequence (P47869 29-451): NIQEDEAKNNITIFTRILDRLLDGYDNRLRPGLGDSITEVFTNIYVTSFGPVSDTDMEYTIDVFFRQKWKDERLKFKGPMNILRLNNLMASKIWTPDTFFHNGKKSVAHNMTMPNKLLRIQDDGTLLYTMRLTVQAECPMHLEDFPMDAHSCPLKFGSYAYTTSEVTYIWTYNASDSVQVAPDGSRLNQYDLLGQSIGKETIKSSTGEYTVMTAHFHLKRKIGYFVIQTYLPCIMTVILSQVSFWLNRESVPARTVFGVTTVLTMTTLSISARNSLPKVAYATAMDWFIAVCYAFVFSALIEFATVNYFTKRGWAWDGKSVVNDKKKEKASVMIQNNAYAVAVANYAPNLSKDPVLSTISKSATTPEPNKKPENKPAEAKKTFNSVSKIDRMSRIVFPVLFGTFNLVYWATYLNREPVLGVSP
T1 sequence (P47870 25-512 partner limits assumed): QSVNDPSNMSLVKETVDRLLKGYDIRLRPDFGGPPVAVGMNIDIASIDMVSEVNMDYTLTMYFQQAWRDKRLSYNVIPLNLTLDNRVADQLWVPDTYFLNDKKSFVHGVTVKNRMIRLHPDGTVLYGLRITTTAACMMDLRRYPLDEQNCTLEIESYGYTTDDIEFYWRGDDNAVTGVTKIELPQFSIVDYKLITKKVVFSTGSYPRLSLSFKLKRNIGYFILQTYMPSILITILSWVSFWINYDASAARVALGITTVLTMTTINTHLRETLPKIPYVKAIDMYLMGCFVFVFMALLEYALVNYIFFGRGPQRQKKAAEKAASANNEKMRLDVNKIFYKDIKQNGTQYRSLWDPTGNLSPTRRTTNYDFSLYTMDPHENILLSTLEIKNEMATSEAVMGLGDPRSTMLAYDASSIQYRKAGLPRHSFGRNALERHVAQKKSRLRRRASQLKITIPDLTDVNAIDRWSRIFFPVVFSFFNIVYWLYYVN
T1 sequence (Q8N1C3 36-465): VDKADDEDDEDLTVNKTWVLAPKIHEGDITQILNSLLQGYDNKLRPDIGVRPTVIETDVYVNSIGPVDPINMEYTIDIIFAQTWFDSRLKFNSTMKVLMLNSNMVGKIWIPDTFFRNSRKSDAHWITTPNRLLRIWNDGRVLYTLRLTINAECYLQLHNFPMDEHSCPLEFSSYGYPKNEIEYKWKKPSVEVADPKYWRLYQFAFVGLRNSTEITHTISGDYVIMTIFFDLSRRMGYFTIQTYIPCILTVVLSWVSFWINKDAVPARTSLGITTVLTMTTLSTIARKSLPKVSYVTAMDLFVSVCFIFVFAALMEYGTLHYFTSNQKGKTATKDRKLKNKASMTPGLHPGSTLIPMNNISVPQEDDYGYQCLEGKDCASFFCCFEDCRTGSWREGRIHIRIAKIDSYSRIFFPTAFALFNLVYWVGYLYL
Method: Xenopus laevis oocytes at maturation stages V-VJ were used for the expression of cloned mRNA encoding GABAA receptor subunits. Oocytes ready for RNA micro-injection were bought from Ecocyte, Castrop-Rauxel, Germany and stored in modified Barth's medium (composition in mM: NaCl 88, KCl 1, NaHCO3 2.4, HEPES 10, MgSO4 0.82, CaNO3 0.33, CaCl2 0.33, pH=7.5) at 20° C. until the experiment.
Oocytes were plated in 96-well plates for microinjection using the Roboinject automated instrument (MultiChannelSystems, Reutlingen, Germany). Approximately 50 nL of an aqueous solution containing the RNA transcripts for the subunits of the desired GABAA receptor subtype was injected into each oocyte. […] Oocytes were kept in modified Barth's medium (composition in mM: NaCl 88, KCl 1, NaHCO3 […], HEPES 10, MgSO4 0.82, CaNO3 0.33, CaCl2 0.33, pH=7.5) at 20° C. until the experiment.
Electrophysiological experiments were performed using the Roboocyte instrument (MultiChannelSystems, Reutlingen, Germany) on days 3 to 5 after the micro-injection of mRNA. During the experiment the oocytes were constantly superfused by a solution containing (in mM) NaCl 90, KCl 1, HEPES 5, MgCl2 1, CaCl2 1 (pH 7.4). Oocytes were impaled by two glass microelectrodes (resistance: 0.5-0.8 MΩ) which were filled with a solution containing KCl 1M+K-acetate 1.5 M and voltage-clamped to −80 mV. The recordings were performed at room temperature using the Roboocyte two-electrode voltage clamp system (Multichannelsystem). After an initial equilibration period of 1.5 min GABA was added for 1.5 min at a concentration evoking approximately 20% of a maximal current response (EC20). After another rest interval of 2.5 min GABA was again added evoking a response of similar amplitude and shape. […] Current traces were recorded at a digitization rate of 10 Hz during and shortly before and after the GABA application.
Each compound and concentration was tested on at least 3 oocytes. Different oocytes were used for different compound concentrations.
For the analysis, the digitized current traces of the first and second GABA response were superimposed and, if necessary, rescaled to equal maximal amplitudes. The ratio between the two responses during the time interval of test compound application was calculated point by point. The extremum of the resulting “ratio trace” was taken as the efficacy (“Fold increase”) of the compound expressed as “% modulation of GABA EC20” (100*(Fold increase−1)).

[2] = molecular target: T2, h-GABAA α1β3γ2 (Homo sapiens, UniProt P14867+P18507); test: Radioligand binding assay, [3H]Flumazenil competition, HEK293F membranes; conditions: for γ2/γ1 Selectivity Ratio: Ki α1β3γ2 (nM)/Ki α2β2γ1 (nM); for LogSel: Log[Ki α1β3γ2 (nM)/Ki α2β2γ1 (nM)]
T2 construct: expressed in transfected cells; host or cells: HEK293F cells, membranes
Method: The affinity of compounds at GABAA γ2 subunit-containing receptors was measured by competition for [^3H]Flumazenil (81.1 Ci/mmol; Roche) binding to HEK293F cells expressing human (transiently transfected) receptors of composition α1β3γ2.
Harvested pellets from HEK293F cells expressing the different GABAA γ2 receptor subtypes were resuspended in Mannitol Buffer pH 7.2-7.4 and processed as described above for the cells expressing the GABAA γ1 subunit-containing receptors.
Assays were incubated to equilibrium for 1 hour at 4° C. and harvested onto GF/C uni-filters (Packard) by filtration using a Packard harvester and washing with ice-cold wash buffer (50 mM Tris; pH 7.5). After drying, filter-retained radioactivity was detected by liquid scintillation counting. Ki values were calculated using Excel-Fit (Microsoft) and are the means of two determinations.

Fc1cccc(F)c1C1=NCc2nnc(-c3cccnn3)n2-c2ccc(Cl)c(Cl)c21 [Example 14, 7,8-dichloro-6-(2,6-difluorophenyl)-1-pyridazin-3-yl-4H-[1,2,4]triazolo[4,3-a][1,4]benzodiazepine]
Efficacy (GABA)% [1]: 71% | Fold increase h-GABA-A α2β2γ1 oocyte @ 30-fold Ki [1]: 1.71 | Ki [2]: 0.299 µM | γ2/γ1 Selectivity Ratio ([2]; Table 1): 86.6 | LogSel ([2]; Table 1): 1.94 | γ2/γ1 Selectivity Ratio ([2]; Table 3): 86.6 | LogSel ([2]; Table 3): 1.9

Fc1cccc(F)c1C1=NCc2nncn2-c2ccc(Cl)c(Cl)c21 [Example 15, 7,8-dichloro-6-(2,6-difluorophenyl)-4H-[1,2,4]triazolo[4,3-a][1,4]benzodiazepine]
Efficacy (GABA)% [1]: 60% | Fold increase h-GABA-A α2β2γ1 oocyte @ 30-fold Ki [1]: 1.60 | Ki [2]: 0.249 µM | γ2/γ1 Selectivity Ratio ([2]; Table 1): 28.7 | LogSel ([2]; Table 1): 1.46

Cc1ccc2c(c1Cl)C(c1c(F)cccc1F)=NCc1n[nH]c(=O)n1-2 [Example 16, 7-chloro-6-(2,6-difluorophenyl)-8-methyl-2,4-dihydro-[1,2,4]triazolo[4,3-a][1,4]benzodiazepin-1-one]
Efficacy (GABA)% [1]: 68% | Fold increase h-GABA-A α2β2γ1 oocyte @ 30-fold Ki [1]: 1.68 | Ki [2]: 0.665 µM | γ2/γ1 Selectivity Ratio ([2]; Table 1): 25.1 | LogSel ([2]; Table 1): 1.40

Cc1ccc2c(c1Cl)C(c1c(F)cccc1F)=NCc1nncn1-2 [Example 17, 7-chloro-6-(2,6-difluorophenyl)-8-methyl-4H-[1,2,4]triazolo[4,3-a][1,4]benzodiazepine]
Efficacy (GABA)% [1]: 70% | Fold increase h-GABA-A α2β2γ1 oocyte @ 30-fold Ki [1]: 1.70 | Ki [2]: 0.493 µM | γ2/γ1 Selectivity Ratio ([2]; Table 1): 24.9 | LogSel ([2]; Table 1): 1.40

Fc1ccccc1C1=NCc2nnc(-c3ccncn3)n2-c2ccc(Cl)c(Cl)c21 [Example 18, 7,8-dichloro-6-(2-fluorophenyl)-1-pyrimidin-4-yl-4H-[1,2,4]triazolo[4,3-a][1,4]benzodiazepine]
Efficacy (GABA)% [1]: 70% | Fold increase h-GABA-A α2β2γ1 oocyte @ 30-fold Ki [1]: 1.70 | Ki [2]: 0.865 µM | γ2/γ1 Selectivity Ratio ([2]; Table 1): 40.1 | LogSel ([2]; Table 1): 1.60

COCCc1nnc2n1-c1ccc(Cl)c(Cl)c1C(c1c(F)cccc1F)=NC2 [Example 19, 7,8-dichloro-6-(2,6-difluorophenyl)-1-(2-methoxyethyl)-4H-[1,2,4]triazolo[4,3-a][1,4]benzodiazepine]
Efficacy (GABA)% [1]: 72% | Fold increase h-GABA-A α2β2γ1 oocyte @ 30-fold Ki [1]: 1.72 | Ki [2]: 0.829 µM | γ2/γ1 Selectivity Ratio ([2]; Table 1): 31.9 | LogSel ([2]; Table 1): 1.50

Cc1ccc2c(c1Cl)C(c1c(F)cccc1F)=NCc1nnc(C)n1-2 [Example 20, 7-chloro-6-(2,6-difluorophenyl)-1,8-dimethyl-4H-[1,2,4]triazolo[4,3-a][1,4]benzodiazepine]
Efficacy (GABA)% [1]: 57% | Fold increase h-GABA-A α2β2γ1 oocyte @ 30-fold Ki [1]: 1.57 | Ki [2]: 0.289 µM | γ2/γ1 Selectivity Ratio ([2]; Table 1): 12.2 | LogSel ([2]; Table 1): 1.09

CC(F)(F)c1ccc2c(c1Cl)C(c1c(F)cccc1F)=NCc1nncn1-2 [Example 21, 7-chloro-8-(1,1-difluoroethyl)-6-(2,6-difluorophenyl)-4H-[1,2,4]triazolo[4,3-a][1,4]benzodiazepine]
Efficacy (GABA)% [1]: 100% | Fold increase h-GABA-A α2β2γ1 oocyte @ 30-fold Ki [1]: 2.00 | Ki [2]: 1.79 µM | γ2/γ1 Selectivity Ratio ([2]; Table 1): 34.5 | LogSel ([2]; Table 1): 1.54

Cc1nnc2n1-c1ccc(C(C)(F)F)c(Cl)c1C(c1c(F)cccc1F)=NC2 [Example 22, 7-chloro-8-(1,1-difluoroethyl)-6-(2,6-difluorophenyl)-1-methyl-4H-[1,2,4]triazolo[4,3-a][1,4]benzodiazepine]
Efficacy (GABA)% [1]: 86% | Fold increase h-GABA-A α2β2γ1 oocyte @ 30-fold Ki [1]: 1.86 | Ki [2]: 2.79 µM | γ2/γ1 Selectivity Ratio ([2]; Table 1): 74.6 | LogSel ([2]; Table 1): 1.87

Fc1cccc(F)c1C1=NCc2nncn2-c2ccc(C(F)F)c(Cl)c21 [Example 23, 7-chloro-8-(difluoromethyl)-6-(2,6-difluorophenyl)-4H-[1,2,4]triazolo[4,3-a][1,4]benzodiazepine]
Efficacy (GABA)% [1]: 61% | Fold increase h-GABA-A α2β2γ1 oocyte @ 30-fold Ki [1]: 1.61 | Ki [2]: 1.2 µM | γ2/γ1 Selectivity Ratio ([2]; Table 1): 22.0 | LogSel ([2]; Table 1): 1.34

Cc1nnc2n1-c1ccc(Br)c(Cl)c1C(c1ncccc1F)=NC2 [Example 24, 8-bromo-7-chloro-6-(3-fluoro-2-pyridyl)-1-methyl-4H-[1,2,4]triazolo[4,3-a][1,4]benzodiazepine]
Efficacy (GABA)% [1]: 85% | Fold increase h-GABA-A α2β2γ1 oocyte @ 30-fold Ki [1]: 1.85 | Ki [2]: 0.608 µM | γ2/γ1 Selectivity Ratio ([2]; Table 1): 25.0 | LogSel ([2]; Table 1): 1.40

Cc1nnc2n1-c1ccc(C(F)F)c(Cl)c1C(c1c(F)cccc1F)=NC2 [Example 25, 7-chloro-8-(difluoromethyl)-6-(2,6-difluorophenyl)-1-methyl-4H-[1,2,4]triazolo[4,3-a][1,4]benzodiazepine]
Efficacy (GABA)% [1]: 84% | Fold increase h-GABA-A α2β2γ1 oocyte @ 30-fold Ki [1]: 1.84 | Ki [2]: 1.19 µM | γ2/γ1 Selectivity Ratio ([2]; Table 1): 24.2 | LogSel ([2]; Table 1): 1.38

O=c1[nH]nc2n1-c1ccc(Br)c(Cl)c1C(c1ccccc1F)=NC2 [Example 26, 8-bromo-7-chloro-6-(2-fluorophenyl)-2,4-dihydro-[1,2,4]triazolo[4,3-a][1,4]benzodiazepin-1-one]
Efficacy (GABA)% [1]: 45% | Fold increase h-GABA-A α2β2γ1 oocyte @ 30-fold Ki [1]: 1.45 | Ki [2]: 0.698 µM | γ2/γ1 Selectivity Ratio ([2]; Table 1): 22.1 | LogSel ([2]; Table 1): 1.34
